Columns and labels:
Wnt/β-catenin signal = test: Luciferase assay in liver stellate cells (LX-2); format: cell-based, human
Description: A human liver stellate cell line (LX-2 cells) was maintained and cultured in a DMEM containing 10% FBS. The cells used for experiments were suspended in a DMEM containing 1% FBS and plated. The cell density was at about 2.0×10^5 cell/cm^2.
A luciferase assay was used to investigate an inhibitory effect of each low-molecular-weight compound on a Wnt/β-catenin signal. The luciferase assay was conducted under conditions indicated in FIG. 40 and the following sections 9.3.1 to 9.3.2. FIG. 40 illustrates a protocol when the cells were treated with a low-molecular-weight compound+TGFβ. Substantially the same experiment was carried out when the cells were treated with a low-molecular-weight compound alone or a low-molecular-weight compound+Wnt3a. Note that TGFβ or Wnt3a was added so as to increase the intensity of a Wnt/β-catenin signal.
First, 5×Passive Lysis Buffer was diluted 5-fold with MilliQ water. The lysis buffer was added at 100 μl/well and the plate was shaken for 20 min. The lysate was frozen at −30° C. overnight.
The sample frozen a day before, LARII, a Stop&Glo buffer, and a Stop&Glo substrate (materials other than the sample were shaded) were incubated at room temperature for about 1 h. A Stop&Glo solution (49 μl of the Stop&Glo buffer and 1 μl of the Stop&Glo substrate) was prepared for the number of the samples+1. Next, 50 μl of the LARII was dispensed into a 3.5-ml tube. Then, 10 μl of the sample was added and the tube was set in a measurement instrument. After completion of the first assay, 50 μl of the Stop&Glo solution was added and the tube was again set in the measurement instrument for another assay.

[1] = tested on: colon cancer cells (DLD-1, HCT 116, colo 205); test: Anti-tumor effect on colon cancer cells (TetraColor ONE); format: cell-based; conditions: 48 hours
Description: Colon cancer cells (DLD-1, HCT 116, colo 205) were cultured in a DMEM on a 10-cm cell culture dish (TPP Techno Plastic Products AG, Trasadingen, Switzerland) at 5% CO2, 37° C., and a humidity of 100%. The cells at 70-90% confluency were split and washed with PBS (−). Next, 300 μL of Trypsin/EDTA was added to 2 mL of PBS (−) and the cells were incubated with this solution at 37° C. for 5 min to detach the cells. Then, 5 mL of DMEM was used to recover the cells. The recovered cells were centrifuged at 1000 rpm for 3 min to remove a supernatant. Then the cells were suspended in DMEM at 1:4 and subcultured.
First, 5×10^5 colon cancer cells (DLD-1, HCT 116, or colo 205) were seeded on a 96-well plate (TPP). Forty-eight hours after the low-molecular-weight compound treatment, 100 μL of 10% TetraColor ONE (SEIKAGAKU CORPORATION, Tokyo, Japan) was added and the mixture was then incubated at 37° C. After that, absorbance (at a measurement wavelength of 450 nm/a control wavelength of 600 nm) was measured by using a 96-well microplate reader (TECAN, Zurich, Switzerland).

[2] = tested on: CD44-negative and CD44-positive HuH7 cells; test: Sphere formation capability of sorted HuH7 cells; format: cell-based, human; conditions: 50 μM IC-2, 10 μM PN-3-13; one week
Description: First, HuH7 cells were collected. Next, the cells were stained with an anti-human CD44 monoclonal antibody (Cell Signaling Technology Inc., Danvers, Mass., USA)), and then with an Alexa 488-labeled goat anti-mouse IgG antibody. After that, a Beckman Coulter-MoFlo XDP (Beckman Coulter Inc., Fullerton, Calif., USA) was used to sort the cells into a CD44-negative fraction and a CD44-positive fraction. The sorted cells were seeded at 5×10^4 cells/well on a 24-well ultra-low-attachment multiwell plate (Corning, N.Y., USA). Subsequently, the cells were cultured at 37° C. in the presence of 5% CO2 in a DMEM/Nutrient Mixture F-12 Ham (Sigma-Aldrich, St. Louis, Mo., USA) containing 20 ng/mL of recombinant human epidermal growth factor, 20 ng/mL of human basic fibroblast growth factor, 1×B27, and L-glutamine. Twenty-four hours after the plating, 1% DSMO, 50 μM IC-2, and 10 μM PN-3-13 were each added to the corresponding well and the cells were further cultured. One week after the chemical treatment, the number of spheres (with a size of 100 μm or larger) in 15 visual fields/well was counted.

O=C1[C@H](Cc2ccccc2)N2C(=O)CCN(C(=O)NCc3ccccc3)[C@H]2CN1Cc1cccc2ccccc12 [IC-2]
inhibition of a Wnt/β-catenin signal in the LX-2 cells (Wnt/β-catenin signal; compound alone, 24 hours): resulted in inhibition
inhibition of a Wnt/β-catenin signal in the LX-2 cells (Wnt/β-catenin signal; compound alone, 48 hours): resulted in inhibition
inhibition of a Wnt/β-catenin signal in the LX-2 cells (Wnt/β-catenin signal; compound+TGFβ, 24 hours): resulted in inhibition
inhibition of a Wnt/β-catenin signal in the LX-2 cells (Wnt/β-catenin signal; compound+TGFβ, 48 hours): resulted in inhibition
inhibition of a Wnt/β-catenin signal in the LX-2 cells (Wnt/β-catenin signal; compound+Wnt3a, 24 hours): resulted in inhibition
inhibitory effect on proliferation of the colon cancer cells [1]: exerted an inhibitory effect on proliferation
formation of spheres, CD44-negative HuH7 cells [2]: inhibited formation of spheres
formation of spheres, CD44-positive HuH7 cells [2]: inhibited formation of spheres
